The source of these data is ChEMBL document CHEMBL6134848, “Deuteration Strategy-Inspired Design of Novel Diarylpyrimidine Derivatives as Potent Non-Nucleoside Reverse Transcriptase Inhibitors Featuring Improved Efficacy, Selectivity, and Druggability” (J Med Chem, 2025).

In data set [1] the test system is Human immunodeficiency virus 1. The data set is described as follows: Antiviral activity against drug-resistant HIV-1 harboring RT RES056 mutant infected in human MT4 cells assessed as protection against virus-induced cytopathicity measured after 5 days post-infection by MTT assay. The settings on record: Human immunodeficiency virus 1, MT4, 120 h. It counts as functional, organism-based.

Data set [2] concerns the target Voltage-gated inwardly rectifying potassium channel KCNH2 (Homo sapiens, UniProt Q12809). The data set is described as follows: Inhibition of hERG expressed in CHO cells by manual patch-clamp electrophysiology. It counts as toxicity, cell-based.
A short description of data set [3]: Oral bioavailability in Sprague-Dawley rat at 10 mg/kg measured for 0.083 to 24 hrs by LC-MS/MS analysis. It counts as ADME, organism-based. As to conditions: in vivo, time 0.083-24 hrs.
A further data set addresses Cytochrome P450 3A4 (Homo sapiens, UniProt P08684). The data set is described as follows: Inhibition of CYP3A4 in human liver microsomes using testosterone as substrate incubated for 15 to 45 mins by. It counts as ADME, Microsome.
A short description of data set [4]: Protein binding in human plasma at 1 uM incubated for 6 hrs. It counts as ADME, cell-free. As to conditions: read-out: PPB (converted).
Data set [5] in a line: AUC (0 to infinity) in Sprague-Dawley rat at 1 mg/kg, iv measured for 0.083 to 24 hrs by LC-MS/MS analysis. It counts as ADME, organism-based. As to conditions: in vivo, time 0.083-24 hrs.

Sequence of Voltage-gated inwardly rectifying potassium channel KCNH2 (Q12809 whole entry): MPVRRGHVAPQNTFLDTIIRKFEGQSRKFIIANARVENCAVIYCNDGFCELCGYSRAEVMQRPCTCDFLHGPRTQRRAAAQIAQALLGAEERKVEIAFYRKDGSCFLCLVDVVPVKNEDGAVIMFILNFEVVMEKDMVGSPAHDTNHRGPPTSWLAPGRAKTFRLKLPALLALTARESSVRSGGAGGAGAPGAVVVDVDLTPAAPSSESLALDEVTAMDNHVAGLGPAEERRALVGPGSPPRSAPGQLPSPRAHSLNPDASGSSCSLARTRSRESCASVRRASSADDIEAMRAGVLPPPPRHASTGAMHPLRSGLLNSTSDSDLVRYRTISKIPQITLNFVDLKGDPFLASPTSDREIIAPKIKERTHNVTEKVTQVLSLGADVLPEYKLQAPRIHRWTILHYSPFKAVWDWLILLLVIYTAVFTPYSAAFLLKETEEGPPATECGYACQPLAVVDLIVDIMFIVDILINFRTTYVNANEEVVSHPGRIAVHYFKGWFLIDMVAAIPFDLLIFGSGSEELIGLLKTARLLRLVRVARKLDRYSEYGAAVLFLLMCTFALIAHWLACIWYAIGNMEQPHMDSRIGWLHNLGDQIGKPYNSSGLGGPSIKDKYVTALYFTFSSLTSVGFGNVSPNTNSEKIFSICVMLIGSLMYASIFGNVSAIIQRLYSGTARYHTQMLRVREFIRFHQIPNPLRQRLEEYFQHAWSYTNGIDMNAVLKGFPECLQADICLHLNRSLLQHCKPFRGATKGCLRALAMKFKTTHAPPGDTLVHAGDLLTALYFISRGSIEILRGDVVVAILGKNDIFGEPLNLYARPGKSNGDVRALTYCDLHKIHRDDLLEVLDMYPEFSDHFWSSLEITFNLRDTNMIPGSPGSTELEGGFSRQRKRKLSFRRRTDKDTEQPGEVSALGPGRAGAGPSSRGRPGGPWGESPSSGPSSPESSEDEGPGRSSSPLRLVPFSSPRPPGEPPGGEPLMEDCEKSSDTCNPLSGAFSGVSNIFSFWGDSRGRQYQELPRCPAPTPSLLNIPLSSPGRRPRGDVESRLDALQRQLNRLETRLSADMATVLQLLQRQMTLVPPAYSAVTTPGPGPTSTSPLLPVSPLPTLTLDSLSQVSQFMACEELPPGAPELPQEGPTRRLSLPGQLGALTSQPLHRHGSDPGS
Sequence of Cytochrome P450 3A4 (P08684 whole entry): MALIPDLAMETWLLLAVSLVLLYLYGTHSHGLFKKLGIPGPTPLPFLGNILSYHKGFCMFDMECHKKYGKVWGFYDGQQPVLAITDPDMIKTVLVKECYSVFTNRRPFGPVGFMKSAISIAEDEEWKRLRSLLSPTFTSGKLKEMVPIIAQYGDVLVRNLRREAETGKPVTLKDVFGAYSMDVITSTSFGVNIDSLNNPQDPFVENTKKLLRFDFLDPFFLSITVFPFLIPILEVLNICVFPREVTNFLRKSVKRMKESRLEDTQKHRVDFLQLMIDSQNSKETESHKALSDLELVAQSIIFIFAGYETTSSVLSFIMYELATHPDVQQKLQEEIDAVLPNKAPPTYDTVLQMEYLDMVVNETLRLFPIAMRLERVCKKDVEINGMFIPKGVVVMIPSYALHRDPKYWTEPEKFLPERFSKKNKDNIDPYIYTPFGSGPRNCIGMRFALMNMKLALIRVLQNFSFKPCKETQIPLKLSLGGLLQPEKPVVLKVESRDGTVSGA

For the molecule `[2H]C([2H])([2H])c1cc(C#N)cc(C([2H])([2H])[2H])c1Oc1nc(NC2CCN(Cc3ccc(S(N)(=O)=O)cc3)CC2)nc2ccsc12`, in data set [1], the EC50 stood at 75.1 nM. The half-maximal inhibitory concentration (IC50) in data set [2] was 932 nM; on Cytochrome P450 3A4, more than 10000 nM. The same molecule came in with a bioavailability in data set [3] of 29%. Further, the fraction unbound at 6 h, 1 µM in data set [4] was 0.005. The same molecule showed a total exposure AUC(0-inf) in data set [5] of 729 ng·h/mL.
